Structures are written as SMILES.

The test system of this experiment is HES3 NKX2-5:GFP hESC-derived day 20 EB populations. The experiment in a line: Flow cytometric and immunostaining analyses of day 20 EB populations (CTNT, MLC2V, NKX2-5, COUPTFII). Format: cell-based, human. The arrangement: frequency of NKX2-5+SIRPa+ cells in day 20 populations: dose or concentration left out as unconfirmed. How it is done:
For cardiac differentiation, we used a modified version of our embryoid body (EB)-based protocol (Kattman et al., 2011). hPSC populations at 80%-90% confluence were dissociated into single cells (TrypLE, ThermoFisher) and re-aggregated to form EBs in StemPro-34 media (ThermoFisher) containing penicillin/streptomycin (1%, ThermoFisher), L-glutamine (2 mM, ThermoFisher), trans-ferrin (150 μg/ml, ROCHE), ascorbic acid (50 μg/ml, Sigma), and monothioglycerol (50 μg/ml, Sigma), ROCK inhibitor Y-27632 (10 μM, TOCRIS) and rhBMP4 (1 ng/ml, R&D) for 18 h on an orbital shaker. At day 1, the EBs were transferred to mesoderm induction media consisting of StemPro-34 with above supplements (-ROCK inhibitor Y-27632) and rhBMP4, rhActivinA (R&D) and rhbFGF (5 ng/ml, R&D) at the indicated concentrations. At day 3, the EBs were harvested, washed with IMDM and transferred to cardiac mesoderm specification media consisting of StemPro-34, the Wnt inhibitor IWP2 (1 μM, TOCRIS) and rhVEGF (10 ng/mL, R&D). At day 5, the EBs were transferred to Stem Pro-34 with rhVEGF (5 ng/ml) for another 7 days and then to Stem Pro-34 media without additional cytokines for further 8 days. At day 20, HES3-NKX2-5gfp/w-derived cardiomyocytes were analyzed and isolated based on the expression of NKX2-5:GFP and SIRPa and a lack of CD90. Cardiomyocytes generated from non-transgenic hPSC lines were analyzed and isolated as SIRPa+CD90− populations. Media was changed every 3 days. Cultures were incubated in a low oxygen environment (5% CO2, 5% O2, 90% N2) for first 12 days and a normoxic environment (5% CO2) for the following 8 days in total of 20 days. The EBs were cultured in ultra-low attachment 6-well dishes (Corning) throughout the differentiation for maintaining suspension cultures.
Day 2-6 EBs were dissociated with TrypLE for 2-4 min at room temperature (RT). Day 20 EBs were dissociated by incubation in Collagenase type 2 (0.5 mg/ml, Worthington) in HANKs buffer overnight at RT followed by TrypLE treatment as described above. The following antibodies were used for staining: anti-PDGFRa-PE (R&D Systems, 3:50), anti-CD235a-APC (BD PharMingen, 1:100), antiSIRPa-PeCy7 (Biolegend, 1:1000), anti-CD90-APC (BD PharMingen, 1:1000), anticardiac isoform of CTNT (ThermoFisher Scientific, 1:2000), or anti-myosin light chain 2 (Abcam, 1:1000). For unconjugated primary antibodies, the following secondary antibodies were used for detection: goat anti-mouse IgG-APC (BD Pharmigen, 1:250), or donkey anti-rabbit IgG-PE (Jackson ImmunoResearch, 1:250). Detailed antibody information is described in Table 2.
For cell-surface marker analyses, cells were stained for 30 min at 4 degrees C. in FACS buffer consisting of PBS with 5% fetal calf serum (FCS) (Wisent) and 0.02% sodium azide. For intracellular staining, cells were fixed for 15 min at 4 degrees C. with 4% PFA in PBS followed by permeabilization using 90% methanol for 20 min at 4 degrees C. Cells were washed with PBS containing 0.5% BSA (Sigma) and stained with unconjugated primary antibodies in FACS buffer overnight at 4 degrees C. Stained cells were washed with PBS with 0.5% BSA and stained with secondary antibodies in FACS buffer for 1 h at 4 degrees C.
Stained cells were analyzed using the LSR II Flow cytometer (BD). For cell sorting, stained cells were kept in IMDM with 0.5% FCS and sorted using Influx (BD), FACSAriall (BD), MoFlo-XDP (BD) and FACSAria Fusion (BD) at the Sickids/UHN flow cytometry facility. Data were analyzed using FlowJo software (Tree Star).
Day 20 EBs were dissociated as described above and the cells plated onto 12 mm cover glasses (VWR) pre-coated with matrigel (25% v/v, BD). Cells were cultured for 3-5 days to enable the formation of adherent cell monolayers. Cells were fixed with
4% PFA in PBS for 10 min at room temperature and permeabilized with PBS containing 0.3% TritonX, 200 mM Glycine (Sigma) for 20 min at RT. Cells were blocked with PBS containing 10% FCS, 0.1% TritonX, and 2% BSA. […]
(In general: A flow cytometer gives signals particle by particle.)

[1] abbreviates: day 3 RA-treated mesoderm versus non-treated control.

In the case of `CC1=C(/C=C/C(C)=C/C=C/C(C)=C/C(=O)O)C(C)(C)CCC1` [RA, all trans retinoic acid], the “frequency of NKX2-5+SIRPa+ cells in day 20 populations” value (RA) was “dramatic reduction”. The “proportion of NKX2-5-GFP− cells” value (RA treatment days 3-5, day 20) is “did not influence”. Moreover, under setting [1], the “frequency of COUPTFII+ cells” value is “much higher frequency” and the “proportion of MLC2V+ cells” value is “dramatic reduction”.

For the origin of these results see patent US20190336537A1, “GENERATING ATRIAL AND VENTRICULAR CARDIOMYOCYTE LINEAGES FROM HUMAN PLURIPOTENT STEM CELLS” (UNIVERSITY HEALTH NETWORK, priority 2016, published 2019).
